From patent US10258599B2, “Compounds for use in the prevention or treatment of cancer” (SEMMELWEIS UNIVERSITY, priority 2014, dated 2019)
Counter-ions that a name gives are not always drawn.

How the values were obtained:
isolated rat brain stem [1] = assay: Release of labelled transmitter from isolated rat brain stem to electrical stimulation
Text: After a single washout the neurons work immediately on their normal activity level again. Since neurons respond to stimulation in an “all or none” manner, it is obvious that only a part of the neuronal population (the most excitable ones) respond to the electrical stimulation.
This measurement can be made, mutatis mutandis, analogously to the measurement described in example 2 of EP1052259B1 (corresponding to WO2000026204A1). The method is described in [Knoll J, Knoll B and Miklya I Life Sci, 58, 2101-2114 (1996)].
In short the brain stem (average weight about 800 mg) is isolated from rats and soaked in oxygenated Krebs' solution. Then solution of labelled neurotransmitter the release of which is measured is added to the preparation and allowed for uptake in an appropriate environment. If needed, MAO activity is inhibited.
After uptake of the monoamine the brain stem is fixed in appropriate organ bath and washed in appropriate solution facilitating uptake and preventing metabolization of the monoamine.
Fractionation of the perfusate is carried out periodically and, if the monoamine is radiolabelled, fractions are combined with a scintillation liquid.
The organ is perfused with the buffer containing the compound(s) of the invention for sufficient time before electrostimulation.
The brain stem is stimulated with rectangular pulses (e.g. 3 Hz, 1 ms 60 V) e.g. for 3 min. At the beginning of the experiment, the several, e.g. three resting periods of fraction were proceeded prior to the first stimulation. Thereafter it is allotted several, e.g. seven resting periods of fraction between stimulation.

fibromyxosarcoma = assay: Longevity study: manifestation of subcutaneous fibromyxosarcoma (TMS effect); type: in vivo, rat; details: for tumor manifestation suppressing (TMS) effect versus saline: Kaplan-Meier
Experimental: (§1) The longevity study was performed on 200 male rats received from the breeding colony of the Semmelweis University. The rats were born at the end of February of 2010. After 2-month acclimation period the rats were divided randomly into 5 even groups. The longevity study started at the beginning of May 2010. Animals were observed until their natural deaths. The data in this study represent the changes observed until Oct. 31, 2012, since in the saline-treated group the last animal died on Oct. 31, 2012. As will be shown later a few rats in the enhancer-treated groups were still alive on Nov. 1, 2012.
(§2) During the longevity study 5 rats were housed together in polycarbonate cages (height: 18 cm; wide: 42 cm; length: 44 cm) with a stainless steel on the top. Cage bedding was renewed 3 times a week (Monday, Wednesday and Friday). Bodyweight was measured once every month. The treatment started at the end of the second month of their age.
We carefully observed the appearance of the subcutaneous tumor and followed the development of the tumor until death. Histological analysis was performed post mortem on several rats taken from each group as examples.
The subcutaneous tumors developed in the rats were measured by the two largest diameters. After sacrificing the animals, the tumors were removed, photographs were taken. Tissues were fixed immediately after removal in 10% neutral formalin (in PBS, pH7.0) for 24 hours at room temperature, dehydrated and embedded in paraffin. 3-4 micrometer thick sections were cut and stained by hematoxylin and eosin (HE) as a routine.
(§3) Significance in the performance between the groups in the shuttle box was evaluated by multi-factor analysis of variance (ANOVA). Significance regarding the span of time from tumor manifestation until death in rats and regarding aging related changes in bodyweight treated chronically with the enhancer substances was analyzed by One-way ANOVA. Statistical analysis of survival rate and tumor manifestation was performed by the Kaplan-Meier method.

UW-228-2 cell line = assay: MTT proliferation assay, UW-228-2 medulloblastoma cells; type: cell-based, human; details: UW-228-2, monotherapy, nine concentrations 10^-14 to 10^-6 M, 72 hours
Experimental: (§4) Human medulloblastoma cell line, Daoy was purchased from ATCCC, UW-228 was obtained from the courtesy of Professor Silber (Univerity of Washington, Seattle, Wash., USA).
(§5) Daoy and UW-228-2 cell lines were maintained in culture medium (each 500 ml Minimum Essential Medium Eagle, Alpha Modification (M8042, Sigma, St Louis, USA) with 50 ml FCS (Gibco), 40 mg Gentamicin (Sandoz), 5 ml sodium-pyruvate (S8636, Sigma, St Louis, USA), 5 ml non-essential-amino acid solution (M7145, Sigma, St Louis, USA), 10 ml L-glutamin (Sigma, St Louis, USA) at 37° C. in humified 5% CO2.
(§6) In each well 3×10^3 Daoy or UW-228-2 cells were seeded in 96-well plates (Sarstedt), solved in 100 μl of its own medium with 10% FCS. 24 hours after seeding, cells were treated for 72 hours by drugs solved in further 100 μl medium. First, both cell lines were treated by (−)-BPAP and (−)-deprenil in monotherapy to determine its dose-effect curves in concentration of 10^−6, 10^−7, 10^−8, 10^−9, […], 10^−11, 10^−12, 10^−13 and 10^−14 M. In combined treatment 10^−3, 3.3×10^−4, […] and 3.7×10^−5 M of temozolomide (Schering Plough, USA) or 0.04, 0.2, 1, 5 μM of Cisplatin (Ebewe Pharma, Austria) or 0.04, 0.2, 1, 5 μM of etoposide (Ebewe Pharma, Austria) or 10^−7, 10^−6, 10^−5 and 10^−4 μM (UW228-2) or 0.001, 0.005, 0.025 and 0.125 μM (Daoy) of Vincristin (Richter Gedeon, Hungary) were applied in monotherapy or combined with 10^−13 or 10^−8 M of (−)-BPAP or (−)-deprenil.
(§7) Cell proliferation was evaluated by MTT (3-(4,5-Dimethylthiazol-2-yl)-2,5-diphenyltetrazolium bromide) assay (M5655, Sigma) after 72-hour treatment by the method described in manufacturer's protocol.

[2] = system: Wistar-Logan strain of rats; details: cited from earlier work
[3] = system: catecholaminergic neurons; assay: Shuttle box: antagonism of tetrabenazine-induced learning deficit (conditioned avoidance reflex); type: in vivo, rat
Experimental: In a modified version of the shuttle box the acquisition of a two-way conditioned avoidance reflex (CAR) was analyzed during 5 consecutive days. The rat was put in a box divided inside into two parts by a barrier with a small gate in the middle, and the animal was trained to cross the barrier under the influence of a conditioned stimulus (CS, light flash). […] One trial consisted of 10 s intertrial interval, followed by 20 s CS. The last 5 s of CS overlaped the 5 s US. At each learning session, the number of CARs, EFs and intersignal reactions (IRs) are automatically counted and evaluated by multi-way ANOVA.
Tetrabenazine-treatment (1 mg/kg s.c.) depletes at least 90% of norepinephrine and dopamine from their stores in the nerve terminals of the catecholaminergic neurons in the brain stem. Due to the weak performance of the catecholaminergic brain engine, the activation of the cortical neurons remains below the level required for the acquisition of a CAR. The learning deficit caused by tetrabenazine-treatment can be antagonized by the administration of a synthetic CAE substance or an A-type MAO inhibitor, whereas selective inhibition of B-type MAO or inhibition of the reuptake of catecholamines and/or serotonin is ineffective (Knoll et al., 1992).

[4] = system: male Wistar rats (Charles River); assay: Longevity study: survival of rats treated 3 times a week s.c.; type: in vivo, rat
Experimental: Experiments were carried out on male Wistar rats (Charles River) weighing 250-350 g received from the breeding colony of Semmelweis University. The animals were kept in a 12-hour light-dark cycle and under condition of controlled temperature (22±2° C.) and relative humidity (55±5%). Room temperature and relative humidity was checked daily. The rats were maintained on standard laboratory chow and tap water ad libitum. All procedures conformed to the European Convention for the protection of vertebrate animals used for experimental and other scientific purposes. The study was approved by the Animal Ethics Committee of Semmelweis University, Budapest (permission number: 1810/003/2004)
as §1, §2
To avoid the mixing of the groups and individuals, saline-treated rats were signed blue from 1 to 40; D-treated rats were signed green from 1 to 80 (1-40: rats treated with 0.1 mg/kg and 41-80: rats treated with 0.001 mg/kg); B-treated rats were signed black from 1 to 80 (1-40: rats treated with 0.05 mg/kg and 41-80: rats treated with 0.0001 mg/kg).
as §3

lung carcinoma = assay: Longevity study on FVB/N mice: spontaneous lung carcinoma at autopsy; type: in vivo, mouse; details: 18-month
Experimental: Body weight is measured bimonthly.
For monitoring, we planned to sacrifice mice from each group at 6-month, 1-year, 1.5-year and 2-year time-points; the rest of the animals are kept until spontaneous death.
The results are shown in Table 4 and on FIGS. 19 and 20. Significance levels were calculated with two-sided Chi-square test.

Daoy HTB-186 cell line = assay: MTT proliferation assay, Daoy medulloblastoma cells; type: cell-based, human; details: monotherapy, nine concentrations 10^-14 to 10^-6 M, 72 hours
Experimental: as §4, §5, §6, §7

isolated rat brain stem [5] = details: optimal concentration for the specific enhancer effect, 3-min collection period; review Knoll, 2005; cited from earlier work
[6] = system: catecholaminergic neurons in the brain stem; details: 1 mg/kg s.c.; cited from earlier work
[7] = shuttle box, 1 mg/kg tetrabenazine s.c.

NCCNC(=O)c1ccc(Cl)cn1 [lazabemide]
release of [3H]-SER to electrical stimulation (isolated rat brain stem [1]; 250 ng/ml): None of these compounds enhanced the release

CNCCC(Oc1ccc(C(F)(F)F)cc1)c1ccccc1 (centres unmarked) [fluoxetine]
release of [3H]-SER to electrical stimulation (isolated rat brain stem [1]; 50 ng/ml): None of these compounds enhanced the release

C#CCN(C)CCCOc1ccc(Cl)cc1Cl [clorgyline]
release of [3H]-SER to electrical stimulation (isolated rat brain stem [1]; 250 ng/ml): None of these compounds enhanced the release

C#CCN(C)[C@H](C)Cc1ccccc1 [(−)-Deprenyl, (R)—N-methyl-N-(1-phenylpropan-2-yl)prop-2-yn-1-amine, reference compound]
tumor manifestation suppressing (TMS) effect versus saline (fibromyxosarcoma; 0.001 mg/kg): not significant
month of age in which the first animal manifested the tumor (fibromyxosarcoma; 0.001 mg/kg, N=40): 12 month
rats in the group manifested the tumor to the end of the 32nd month (fibromyxosarcoma; 0.001 mg/kg, N=40): 15 rats
tumor manifestation suppressing (TMS) effect versus saline (fibromyxosarcoma; 0.1 mg/kg, P<0.01, listed as (−)-deprenyl): significantly decreased
tumor manifestation suppressing (TMS) effect versus saline (fibromyxosarcoma; 0.1 mg/kg, P<0.01, listed as Deprenyl): suppressed the manifestation of the fibromyxosarcoma significantly
month of age in which the first animal manifested the tumor (fibromyxosarcoma; 0.1 mg/kg, N=40): 16 month
rats in the group manifested the tumor to the end of the 32nd month (fibromyxosarcoma; 0.1 mg/kg, N=40): 11 rats
rats manifested the tumor when the group completed the 30th month of life (fibromyxosarcoma; 0.1 mg/kg, N=40): 11 rats
span of time from tumor manifestation until death (fibromyxosarcoma; chronic treatment, versus saline (FIG. 13), One-way ANOVA): no significant difference
proliferation of cultured medulloblastoma cells (UW-228-2 cell line; listed as (−)-deprenyl): did not inhibit the proliferation
proliferation of cultured medulloblastoma cells (UW-228-2 cell line; listed as Deprenyl): none of the applied concentrations did Deprenyl or BPAP influence the proliferation
rats that lived longer than the maximum lifespan ever observed in the strain ([2]; HP rats, out of 50): 17 rats
lifespan versus saline treated peers ([2]; sexually lowest performing (LP) rats, n=49): lived significantly longer than their saline treated peers
dose-effect-relation of the enhancer effect ([3]; shuttle box (FIG. 3)): bi-modal, bell-shaped
optimal dose that exerted the specific enhancer effect [3, 7]: 0.001 mg/kg
very high dose range effective in antagonizing the tetrabenazine-induced learning deficit (MAO-A inhibition) [3, 7]: 5 to 10 mg/kg
month of age in which the first animal died ([4]; 0.001 mg/kg s.c. 3 times a week, N=40): 13 month
rats remained alive to the end of the 32nd month ([4]; 0.001 mg/kg, N=40): none
month of age in which the first animal died ([4]; 0.1 mg/kg s.c. 3 times a week, N=40): 11 month
lifespan compared with saline-treated peers ([4]; both doses of the longevity study (FIGS. 5-8)): did not prolong the lifespan of rats significantly
Number of detected lung carcinoma (lung carcinoma; 0.001 mg/kg daily, 2 dissected mice): 0
Number of detected lung carcinoma (lung carcinoma; 0.1 mg/kg daily, 4 dissected mice): 1
proliferation of cultured medulloblastoma cells (Daoy HTB-186 cell line; listed as (−)-deprenyl): did not inhibit the proliferation
proliferation of cultured medulloblastoma cells (Daoy HTB-186 cell line; listed as Deprenyl): none of the applied concentrations did Deprenyl or BPAP influence the proliferation
released amount of labeled transmitter ([3H]-norepinephrine, [3H]-dopamine or [3H]-serotonin) (isolated rat brain stem [5]): significantly higher

COc1cc2c(cc1OC)C1CC(=O)C(CC(C)C)CN1CC2 (centres unmarked) [Tetrabenazine, Tetrabenazine HCl]
depletion of norepinephrine and dopamine from their stores in the nerve terminals [6]: at least 90%
